Data as given in patent US20260374739A1, “SMALL MOLECULAR WEIGHT CHEMICAL COMPOUND TO ANTAGONIZE EPH-EPHRIN TETRAMERIZATION AND INHIBIT BIDIRECTIONAL SIGNALING” (THE BOARD OF REGENTS OF THE UNIVERSITY OF TEXAS SYSTEM, priority 2022, published 2026).
Entries after “also recorded” stand apart in the source; their conditions may differ.

What was measured:
EphB2 = EphB2 phosphorylation in mouse brain after dosing (immunoprecipitation/immunoblot); assay type: in vivo; settings: 4 days
Description: Wild-type mice aged 10-12 weeks were IP injected every 12 hr for four days with vehicle (PBS) or 10 mg/kg of 2×·HCl salt forms of A20 (in PBS), A20-I (in PBS), or 3511-I, in 94% PBS/6% DMSO) for a total of 8 injections. Exactly 2 hr after final injection of A20 chemical, brains were dissected and frozen at −80 °C. Whole brain protein lysates were then prepared in a Dounce homogenizer using 5 ml PLC lysis buffer, and 1 ml of lysate was used for immunoprecipitation (IP) with 1 μg goat anti-EphB2 antibody, followed by immunoblot (IB) analysis with goat anti-EphB2, rabbit anti-phosphoEphB1/B2 (pEphB1/B2), and mouse anti-EphrinB2 antibodies using appropriate HRP conjugated secondary antibodies and chemiluminescent detection methods.
FIG. 79A depicts an illustrative immunoblot showing expression of EphB2, phospho-EphB1/B2, and EphrinB2 (co-IP) in the mouse brains. […] The level of co-immunoprecipitated EphrinB2 from the brains of A20 chemical injected animals was generally lower as indicated by fainter bands. FIGS. 79B and 79C show quantification of band intensities (number of photons detected) to obtain ratios of pEphB/EphB2 as a measure of EphB2 receptor activation levels (FIG. 79B) and ratios of EphrinB2/EphB2 as a measure of how much EphrinB2 is co-immunoprecipitated with the EphB2 receptor (FIG. 79C).
Whole brain protein lysates were prepared from wild-type mice either oral dosed (PO) or injected (IP) for 4 days with vehicle (PBS) or 20 mg/kg of 2×·HCl salt drugs of A20 or A20-I every 12 hr, with last ([…]) dose staggered such that brain dissections happened 2 hr after final drug dosing. EphB2 was immunoprecipitated from 1 ml of protein lysate using 1 μg of goat anti-EphB2 antibodies and then precipitated proteins immunoblotted with goat anti-EphB2, rabbit anti-pTyr1000, and mouse 4G10 antibodies using appropriate HRP conjugated secondary antibodies and chemiluminescent detection methods.
The pTry1000 and 4G10 immunoblots (FIG. 80B and FIG. 80C, respectively), which both recognize tyrosine phosphorylated proteins and are readouts for the activated EphB2 tyrosine kinase catalytic domain, both show strong tyrosine phosphorylation of the receptor in 3 of 4 vehicle (V) control lanes. […] The results shown here also highlight our finding that when EphB2 is tyrosine phosphorylated and catalytically activate in the intact brain, the protein migrates much slower in the SDS-PAGE gels with apparent migration in distinct bands-220-260 kDa (green arrows in FIGS. 80B and 80C), as opposed to the typical migration of unphosphorylated EphB2 protein at 125 kDa (black arrow in FIG. 80A).

[1] = in vitro metabolic stability, murine microsomal assay; assay type: in vitro ADME, mouse; settings: for metabolic stability: murine microsomal, compared to A20; for half-life: mouse, liver microsomes, murine microsomal assay
[2] = test system: CFA-induced thermal pain in mice; test: CFA inflammatory pain, thermal; assay type: in vivo, mouse
Description: A total of five wildtype (WT) male mice were injected IP with A20 free base (3 mice at 10 mg/kg and 2 mice at 20 mg/kg in 6% DMSO/94% sunflower seed oil, data is pooled) and three WT males with vehicle (V) only as control. As indicated, injections of A20 or V started two days prior to the single injection of CFA into one of the two hind paws to initiate inflammatory pain, and injections continued for two additional days. For each day's examination of withdrawal latency, both left and right hind paws were subjected to 6-12 thermal pain measurements to obtain an average response time for each mouse. Mice were at 14 weeks age when experiment started.
Wildtype (WT) female mice were injected IP with either A20 free base (20 mg/kg in 6% DMSO/94% sunflower seed oil), with MCD kinase inhibitor (10 mg/kg in PBS), or vehicle only (6% DMSO/94% sunflower seed oil). Injections of A20, MCD, or V started two days prior to a single injection of CFA into one of the two hind paws to initiate inflammatory pain, and injections continued for two additional days. For each day's examination of withdrawal latency, both left and right hind paws were subjected to 6-12 thermal pain measurements to obtain an average response time, and for each mouse the average of the uninjured hind paw response time was divided by the average of the injured side response time to obtain a pain response ratio for each mouse which was then plotted and subjected to indicated statistical analysis. Data shown were those obtained at day +3 post-CFA. Mice were at 20 weeks age when experiment started.
FIG. 63 depicts tests of salt versions of compounds A20 and QPB4-Bn showing both are effective at reducing inflammatory pain when injected after the pain-generating insult and when using PBS as the vehicle. Wild-type (WT) male and female mice were injected IP with either A20.2×HCl salt (20 mg/kg in PBS), QPB4-Bn·2×HCl salt (20 mg/kg in PBS), or vehicle only (PBS). Here, the first injection of A20, QPB4-Bn, or V started 15 minutes after CFA was injected into one of the two hind paws to initiate inflammatory pain, and injections continued every 12 hours for three additional days. For each day's examination of withdrawal latency, both left and right hind paws were subjected to 6-12 thermal pain measurements to obtain an average response time, and for each mouse the average of the uninjured hind paw response time was divided by the average of the injured side response time to obtain a pain response ratio for each mouse which was then plotted and subjected to indicated statistical analysis. Data shown were those obtained at day +3 post-CFA. Mice were at 8 weeks age when experiment started.
FIG. 64 depicts tests of two more A20 analogs, salt forms of QPB4 and QPP (QPP127) show both are effective at reducing inflammatory pain when injected after the pain-generating insult and when using PBS as the vehicle. Wild-type (WT) female mice were injected IP with QPB4.2×HCl salt (20 mg/kg in PBS), QPP (QPP127)·2×HCl salt (20 mg/kg in PBS), or vehicle only (PBS). Here, the first injection of QPB4, QPP (QPP127), or vehicle started 15 minutes after CFA was injected into one of the two hind paws to initiate inflammatory pain, and injections continued every 12 hours for three additional days. For each day's examination of withdrawal latency, both left and right hind paws were subjected to 6-12 thermal pain measurements to obtain an average response time, and for each mouse the average of the uninjured hind paw response time was divided by the average of the injured side response time to obtain a pain response ratio for each mouse which was then plotted and subjected to indicated statistical analysis. Data shown were those obtained at day +3 post-CFA. Mice were at 12 weeks age when experiment started.
A20 was therefore tested in 14-week-old CD1 mice for enhanced thermal sensitivity induced by CFA. […]

Oc1c(I)cc(CN2CCOCC2)c2cccnc12 [Compound 7, 7-iodo-5-(morpholinomethyl)quinolin-8-ol]
activated phosphorylated EphB2 in brain (EphB2; IP 10 mg/kg every 12 hr): generally lower level of activated phosphorylated EphB2 in the brain
activated phosphorylated EphB2 in brain (EphB2; PO or IP 20 mg/kg every 12 hr): lower levels of activated phosphorylated EphB2 in the brain
metabolic stability ([1]; listed as A20-1): longer in vitro half-life
metabolic stability ([1]; listed as A20-I): increased in vitro metabolic stability compared to A20

COc1ccccc1N1CCN(Cc2cc(Br)c(O)c3ncccc23)CC1 [Compound 70, 7-bromo-5-((4-(2-methoxyphenyl)piperazin-1-yl)methyl)quinolin-8-ol]
half-life [1]: 2.27 h

Oc1c(Br)cc(CN2CCOCC2)c2cccnc12 [Compound 5, 7-bromo-5-(morpholinomethyl)quinolin-8-ol]
activated phosphorylated EphB2 in brain (EphB2; IP 10 mg/kg every 12 hr): generally lower level of activated phosphorylated EphB2 in the brain
activated phosphorylated EphB2 in brain (EphB2; PO or IP 20 mg/kg every 12 hr): lower levels of activated phosphorylated EphB2 in the brain
half-life [1]: 3.73 h
thermal pain ratio ([2]; IP or PO 20 mg/kg, vehicle 4 or above): < 2
thermal pain ([2]; IP, dosing started two days before CFA, listed as A20): remarkably blunted; also recorded: appears to be a more effective agent
thermal pain ([2]; dosed after CFA, listed as A20): ability to blunt the enhanced sensitivity produced by the inflammatory pain insult; also recorded: reduced sensitivity to the infrared heat source compared to the vehicle treated mice

Oc1ccc(CN2CCN(Cc3ccc(Br)cc3)CC2)c2cccnc12 [Compound 42, 5-((4-(4-bromobenzyl)piperazin-1-yl)methyl)quinolin-8-ol]
thermal pain ([2]; dosed after CFA): ability to blunt the enhanced sensitivity produced by the inflammatory pain insult

COc1ccccc1N1CCN(Cc2cc(I)c(O)c3ncccc23)CC1 [Compound 71, 7-iodo-5-((4-(2-methoxyphenyl)piperazin-1-yl)methyl)quinolin-8-ol]
activated phosphorylated EphB2 in brain (EphB2; IP 10 mg/kg every 12 hr): generally lower level of activated phosphorylated EphB2 in the brain

Oc1ccc(CN2CCN(c3ccc(Br)cc3)CC2)c2cccnc12 [Compound 26, 5-((4-(4-bromophenyl)piperazin-1-yl)methyl)quinolin-8-ol]
thermal pain ([2]; dosed after CFA): ability to blunt the enhanced sensitivity produced by the inflammatory pain insult

Oc1ccc(CN2CCN(c3ccc(Br)cn3)CC2)c2cccnc12 [Compound 33, 5-((4-(5-bromopyridin-2-yl)piperazin-1-yl)methyl)quinolin-8-ol]
thermal pain ([2]; dosed after CFA): ability to blunt the enhanced sensitivity produced by the inflammatory pain insult

Oc1ccc(CN2CCOCC2)c2cccnc12 [Compound 1, 5-(morpholinomethyl)quinolin-8-ol]
half-life [1]: 0.367 h
